Among the test systems are A498; A549; ACHN; BT-549; CAKI-1; DU-145; EKVX; HCC 2998; HT-29; IGROV-1; MCF7; Malme-3M; NCI-H522; NCI/ADR-RES; PC-3; U-251; UACC-62; UO-31; HL-60.
What all share (test): NCI tumour cell line growth inhibition, 48 h

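Each compound was tested at five concentrations against cells in 96-well plates for 48 hours. GI50: concentration for 50% inhibition of growth.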 The source made the active and inactive calls. No stated cut-off is given here; in the data, active = GI50 up to about 1.1 µM and inactive = higher.

With `C/C(=C\c1ccccc1)C(=O)NCc1ccc(C(=O)NCCc2ccccc2)cc1`, the GI50 is > 66.5 µM (inactive) with A498; > 100 µM (inactive) in the test with A549; > 94.6 µM (inactive) with ACHN; 28.9 µM (inactive) in the test with BT-549; > 93.3 µM (inactive) with CAKI-1; > 100 µM (inactive) with DU-145. In addition, the GI50 with EKVX is 22.5 µM (inactive); in the test with HCC 2998, > 100 µM (inactive); in the test on HT-29 it was 2.67 µM (inactive); with IGROV-1 it was 35.8 µM (inactive); in the test on MCF7 it was > 100 µM (inactive); in the test with Malme-3M it was > 100 µM (inactive). Further, the GI50 was > 100 µM (inactive) with NCI-H522; > 39.9 µM (inactive) with NCI/ADR-RES; > 100 µM (inactive) in the test on PC-3; > 51.8 µM (inactive) with U-251; > 100 µM (inactive) with UACC-62; 22 µM (inactive) in the test with UO-31.
Take `Cn1c(=O)c2c(nc3sc4nc5ccccc5nc4n32)n(C)c1=O`: the GI50 with A498, with A549, in the test on ACHN, in the test on BT-549, with CAKI-1 and in the test with DU-145 was > 100 µM (inactive) in each case. In addition, the GI50 in the test with EKVX, with HCC 2998, in the test with HL-60, with HT-29, in the test on IGROV-1 and with MCF7 was > 100 µM (inactive) throughout. Also, the GI50 with Malme-3M, with NCI/ADR-RES, in the test on PC-3, in the test on U-251, in the test on UACC-62 and with UO-31 was > 100 µM (inactive) each time.
`O=C1OI(C#Cc2ccccc2)c2ccccc21`: the GI50 is 4.57 µM (inactive) with A498; 8.65 µM (inactive) with A549; 2.18 µM (inactive) in the test with ACHN; 2.88 µM (inactive) in the test on BT-549; 2.61 µM (inactive) in the test on CAKI-1; 7.18 µM (inactive) in the test with DU-145. The GI50 in the test with EKVX was 2.76 µM (inactive); in the test on HCC 2998 it was 6.58 µM (inactive); with HL-60 it was 1.12 µM (active); in the test with HT-29 it was 3.94 µM (inactive); in the test on IGROV-1, 2.14 µM (inactive); with MCF7 it was 3.69 µM (inactive). For the same molecule, the GI50 is 1.53 µM (inactive) in the test with Malme-3M; 5.98 µM (inactive) in the test on NCI/ADR-RES; 4.54 µM (inactive) with PC-3; 2.62 µM (inactive) in the test on U-251; 5.04 µM (inactive) in the test with UACC-62; 4.13 µM (inactive) in the test on UO-31.
Take `CCCCCCc1ccc(C(=O)NO)cc1`: the GI50 with A498 is 29.2 µM (inactive); with A549 it was 33.8 µM (inactive); in the test on ACHN it was 22.9 µM (inactive); in the test with BT-549, 28.6 µM (inactive); in the test with CAKI-1 it was 28.1 µM (inactive); in the test on DU-145, 24.8 µM (inactive). Besides, the GI50 was 37.8 µM (inactive) in the test with EKVX; 65.2 µM (inactive) in the test on HCC 2998; 16.5 µM (inactive) in the test on HL-60; 36 µM (inactive) in the test on HT-29; 24.5 µM (inactive) with IGROV-1; 59.3 µM (inactive) in the test with MCF7. Moreover, the GI50 in the test with NCI-H522 is 11.3 µM (inactive); with NCI/ADR-RES, 15.3 µM (inactive); in the test with PC-3, 31.8 µM (inactive); with U-251, 38.8 µM (inactive); in the test with UACC-62, 24.9 µM (inactive); with UO-31, 15.7 µM (inactive).
`Nc1ncnc2c1nc(-c1ccccc1)n2C1OC(CO)C(O)C1O` (stereo not given): the GI50 with A498, in the test with A549, in the test with ACHN, in the test with BT-549, with CAKI-1 and with DU-145 was > 100 µM (inactive) in each case. Besides, the GI50 with EKVX, in the test with HCC 2998, in the test on HL-60, in the test on HT-29, in the test with IGROV-1 and in the test with MCF7 was > 100 µM (inactive) throughout. In addition, the GI50 in the test with NCI-H522, in the test on NCI/ADR-RES, in the test on PC-3, in the test with U-251, in the test with UACC-62 and with UO-31 was > 100 µM (inactive) each time.
With `N/C(=N\c1ccc(Cl)cc1)NS(=O)(=O)c1c(C(F)(F)F)cccc1C(F)(F)F`, the GI50 with A498 was 17.8 µM (inactive); with A549 it was 12.6 µM (inactive); with ACHN, 14.5 µM (inactive); in the test on BT-549 it was 29.3 µM (inactive); in the test on DU-145 it was 46.5 µM (inactive); in the test with EKVX, 5.93 µM (inactive). The GI50 with HL-60 is 20 µM (inactive); with HT-29 it was 19.8 µM (inactive); in the test on IGROV-1, 16.6 µM (inactive); in the test with MCF7 it was 15.6 µM (inactive); with Malme-3M it was 17.4 µM (inactive); in the test on NCI-H522, 10.1 µM (inactive). In addition, the GI50 in the test on NCI/ADR-RES is 12.2 µM (inactive); in the test with PC-3, 5.45 µM (inactive); with U-251 it was 13.5 µM (inactive); with UACC-62 it was 8.34 µM (inactive); in the test on UO-31, 2.29 µM (inactive).
For `N/N=C1/C2CN3CCN(C2)CC1(c1ccc([N+](=O)[O-])cc1)C3`, the GI50 in the test on A498, in the test on ACHN, in the test with BT-549, in the test on CAKI-1, in the test on DU-145 and with EKVX was > 100 µM (inactive) in each case. Besides, the GI50 with HL-60, in the test with HT-29, with IGROV-1, in the test with MCF7, with Malme-3M and in the test with NCI-H522 was > 100 µM (inactive) each time. Besides, the GI50 in the test on NCI/ADR-RES, in the test with PC-3, in the test with U-251, in the test with UACC-62 and with UO-31 was > 100 µM (inactive) each time.
In the case of `Cc1nn(CN2CCN(C)CC2)c(=S)n1/N=C/c1ccc(-c2ccc(Cl)cc2Cl)o1`, the GI50 with A498 is 19.2 µM (inactive); in the test on A549, > 100 µM (inactive); in the test on ACHN, > 100 µM (inactive); in the test on BT-549, > 100 µM (inactive); in the test with DU-145, > 100 µM (inactive); in the test with EKVX, 14.8 µM (inactive). Besides, the GI50 in the test with HCC 2998 was > 100 µM (inactive); with HL-60, 32.7 µM (inactive); in the test on HT-29 it was 89.1 µM (inactive); in the test on IGROV-1 it was 81.8 µM (inactive); in the test with MCF7, 33.4 µM (inactive); in the test with Malme-3M it was > 100 µM (inactive). In addition, the GI50 in the test on NCI-H522 is > 100 µM (inactive); in the test with NCI/ADR-RES it was 62.7 µM (inactive); with PC-3, 68.7 µM (inactive); in the test with U-251, 32.8 µM (inactive); in the test with UACC-62 it was 99.5 µM (inactive); in the test on UO-31, 92.9 µM (inactive).
For the molecule `CC(C)(Br)C(Br)CCC(C)(Br)C(Br)CO` (stereo not given), the GI50 with A498, with A549, in the test on ACHN, in the test with BT-549, with CAKI-1 and with DU-145 was > 10 µM (inactive) each time. The GI50 with EKVX, in the test with HCC 2998, in the test on HT-29, with IGROV-1, in the test on MCF7 and with Malme-3M was > 10 µM (inactive) in each case. Moreover, the GI50 in the test on NCI-H522, in the test with NCI/ADR-RES, in the test on PC-3, in the test on U-251 and in the test on UO-31 was > 10 µM (inactive) throughout.
Regarding `CCN(CC)C(=S)N/N=C/c1cc([N+](=O)[O-])ccc1O`, the GI50 was 2.25 µM (inactive) in the test on A498; 12.8 µM (inactive) in the test on A549; 3.36 µM (inactive) with ACHN; 4.54 µM (inactive) in the test with BT-549; 4.56 µM (inactive) in the test on DU-145; 4.56 µM (inactive) in the test on EKVX. The GI50 was 8.53 µM (inactive) in the test with HCC 2998; 1.69 µM (inactive) with HL-60; 5.45 µM (inactive) in the test with HT-29; 3.65 µM (inactive) in the test with IGROV-1; 2.22 µM (inactive) in the test with MCF7; 6.68 µM (inactive) with Malme-3M. Moreover, the GI50 in the test with NCI-H522 was 5.07 µM (inactive); in the test with NCI/ADR-RES, 3.01 µM (inactive); in the test on PC-3 it was 4.92 µM (inactive); in the test on U-251, 4.24 µM (inactive); in the test on UACC-62 it was 3.27 µM (inactive); in the test with UO-31, 3.12 µM (inactive).
In the case of `Nc1n2nc(-c3ccccc3)sc2n[n+]1CC(=O)c1ccccc1`, the GI50 in the test with A498 was 25.1 µM (inactive); with A549, 21.2 µM (inactive); in the test on ACHN, 12.9 µM (inactive); in the test with BT-549, 25.9 µM (inactive); in the test on CAKI-1, 12.3 µM (inactive); in the test with DU-145, 17.8 µM (inactive). The GI50 in the test on EKVX was 31.6 µM (inactive); with HCC 2998, 12.5 µM (inactive); with HT-29 it was 9.53 µM (inactive); with IGROV-1, 12.6 µM (inactive); in the test with MCF7, 5.37 µM (inactive); in the test on Malme-3M, > 10 µM (inactive). Also, the GI50 is 15.8 µM (inactive) with NCI-H522; 14 µM (inactive) in the test with NCI/ADR-RES; 11 µM (inactive) in the test with PC-3; 12.6 µM (inactive) with U-251; 7.06 µM (inactive) with UACC-62; 16.6 µM (inactive) in the test with UO-31.

For the origin of these results see ChEMBL document CHEMBL1201862, “PubChem BioAssay data set” (2004).
